From US10807944B2, “HDAC inhibitor compounds and methods of treatment” (priority 2014, dated 2020)

Key:
Format in all cases: biochemical
[1] = biological target: HDAC1 (Homo sapiens (Human), UniProt Q13547); experiment: HDAC1 in vitro inhibition, dose response; settings: Table 2; read-out: HDAC 1 IC50
[2] = biological target: HDAC2 (Homo sapiens (Human), UniProt Q92769); experiment: HDAC2 in vitro inhibition, dose response; settings: Table 2; read-out: HDAC 2 IC50
[3] = biological target: HDAC3 (Homo sapiens (Human), UniProt O15379); experiment: HDAC3 in vitro inhibition, dose response; settings: Table 2; read-out: HDAC 3 IC50
[4] = biological target: HDAC8 (Homo sapiens (Human), UniProt Q9BY41); experiment: HDAC8 in vitro inhibition, dose response; settings: Table 2; read-out: HDAC 8 IC50
[5] = biological target: HDAC6 (Homo sapiens (Human), UniProt Q9UBN7); experiment: HDAC6 in vitro inhibition, dose response; settings: Table 2; read-out: HDAC 6 IC50
Sequence of HDAC6 (Q9UBN7 whole entry): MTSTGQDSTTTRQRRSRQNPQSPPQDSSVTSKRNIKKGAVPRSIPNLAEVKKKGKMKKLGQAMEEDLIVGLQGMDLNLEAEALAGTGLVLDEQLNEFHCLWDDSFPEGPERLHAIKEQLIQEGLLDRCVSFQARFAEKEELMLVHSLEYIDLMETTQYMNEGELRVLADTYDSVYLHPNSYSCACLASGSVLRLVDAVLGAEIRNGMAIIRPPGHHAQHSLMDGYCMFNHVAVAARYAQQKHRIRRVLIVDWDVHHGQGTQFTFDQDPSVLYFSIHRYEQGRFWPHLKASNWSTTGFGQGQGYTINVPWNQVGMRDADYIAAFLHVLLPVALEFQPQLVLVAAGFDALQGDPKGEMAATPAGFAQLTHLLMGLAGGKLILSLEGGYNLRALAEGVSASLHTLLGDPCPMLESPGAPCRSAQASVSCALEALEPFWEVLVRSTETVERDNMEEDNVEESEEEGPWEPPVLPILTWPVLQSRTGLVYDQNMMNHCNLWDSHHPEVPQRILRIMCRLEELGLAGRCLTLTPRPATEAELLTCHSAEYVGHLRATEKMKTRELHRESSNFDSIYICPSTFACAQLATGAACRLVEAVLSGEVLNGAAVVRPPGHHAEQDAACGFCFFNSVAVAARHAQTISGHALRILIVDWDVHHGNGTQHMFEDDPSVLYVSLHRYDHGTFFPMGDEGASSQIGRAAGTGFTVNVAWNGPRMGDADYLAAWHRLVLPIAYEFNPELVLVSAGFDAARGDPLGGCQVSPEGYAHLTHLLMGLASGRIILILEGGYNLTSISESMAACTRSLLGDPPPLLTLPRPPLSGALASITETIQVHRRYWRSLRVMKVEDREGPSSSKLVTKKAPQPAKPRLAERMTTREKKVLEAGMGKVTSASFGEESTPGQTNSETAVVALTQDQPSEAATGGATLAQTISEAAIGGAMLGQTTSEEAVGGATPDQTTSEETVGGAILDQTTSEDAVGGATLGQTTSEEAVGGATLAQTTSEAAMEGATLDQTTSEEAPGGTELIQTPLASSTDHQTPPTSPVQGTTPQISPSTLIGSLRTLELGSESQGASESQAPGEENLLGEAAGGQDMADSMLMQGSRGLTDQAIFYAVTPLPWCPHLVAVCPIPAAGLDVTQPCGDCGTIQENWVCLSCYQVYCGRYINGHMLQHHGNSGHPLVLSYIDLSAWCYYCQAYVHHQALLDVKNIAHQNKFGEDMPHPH

Sequence of HDAC3 (O15379 whole entry): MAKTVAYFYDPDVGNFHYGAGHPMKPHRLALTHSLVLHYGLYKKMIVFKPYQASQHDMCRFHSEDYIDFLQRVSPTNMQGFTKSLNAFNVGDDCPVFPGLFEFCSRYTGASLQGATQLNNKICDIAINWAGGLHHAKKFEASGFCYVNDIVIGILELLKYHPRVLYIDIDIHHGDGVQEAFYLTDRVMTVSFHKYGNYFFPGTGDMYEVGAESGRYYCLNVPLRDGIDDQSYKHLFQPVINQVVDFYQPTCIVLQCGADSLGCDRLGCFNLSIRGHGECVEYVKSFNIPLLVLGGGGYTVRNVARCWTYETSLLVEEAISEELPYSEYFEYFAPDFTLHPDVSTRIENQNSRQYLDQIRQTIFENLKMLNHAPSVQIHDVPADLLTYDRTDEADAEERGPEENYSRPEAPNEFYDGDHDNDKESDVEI
Sequence of HDAC3 (Q9Y618 395-489 partner): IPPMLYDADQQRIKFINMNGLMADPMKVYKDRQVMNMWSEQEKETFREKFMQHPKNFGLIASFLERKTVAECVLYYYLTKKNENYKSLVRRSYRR
Sequence of HDAC1 (Q13547 whole entry): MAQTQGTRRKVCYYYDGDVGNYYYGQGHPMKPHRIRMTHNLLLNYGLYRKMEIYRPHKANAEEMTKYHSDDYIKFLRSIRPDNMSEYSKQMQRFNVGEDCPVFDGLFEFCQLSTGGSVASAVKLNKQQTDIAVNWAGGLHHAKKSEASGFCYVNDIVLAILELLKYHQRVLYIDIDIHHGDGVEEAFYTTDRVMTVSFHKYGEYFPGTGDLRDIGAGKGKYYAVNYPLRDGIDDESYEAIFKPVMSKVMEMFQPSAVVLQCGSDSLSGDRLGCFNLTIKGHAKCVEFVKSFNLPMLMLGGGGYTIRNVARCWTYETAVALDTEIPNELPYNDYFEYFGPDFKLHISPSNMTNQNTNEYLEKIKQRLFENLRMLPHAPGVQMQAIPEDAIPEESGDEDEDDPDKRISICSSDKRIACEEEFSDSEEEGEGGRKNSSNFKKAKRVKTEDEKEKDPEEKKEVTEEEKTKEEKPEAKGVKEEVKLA
Sequence of HDAC2 (Q92769 whole entry): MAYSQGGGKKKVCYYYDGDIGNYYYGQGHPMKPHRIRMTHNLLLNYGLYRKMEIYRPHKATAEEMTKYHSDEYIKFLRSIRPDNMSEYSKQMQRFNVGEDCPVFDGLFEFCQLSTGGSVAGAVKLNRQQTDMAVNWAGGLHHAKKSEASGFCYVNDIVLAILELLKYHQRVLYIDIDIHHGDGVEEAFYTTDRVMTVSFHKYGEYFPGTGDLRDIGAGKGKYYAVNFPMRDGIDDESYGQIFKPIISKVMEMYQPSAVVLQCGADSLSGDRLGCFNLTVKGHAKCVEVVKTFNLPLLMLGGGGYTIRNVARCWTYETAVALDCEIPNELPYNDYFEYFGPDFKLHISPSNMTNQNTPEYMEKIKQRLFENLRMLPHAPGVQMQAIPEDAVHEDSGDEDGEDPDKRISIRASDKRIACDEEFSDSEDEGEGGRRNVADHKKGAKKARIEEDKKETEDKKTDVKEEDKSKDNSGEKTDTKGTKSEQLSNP
Sequence of HDAC8 (Q9BY41 whole entry): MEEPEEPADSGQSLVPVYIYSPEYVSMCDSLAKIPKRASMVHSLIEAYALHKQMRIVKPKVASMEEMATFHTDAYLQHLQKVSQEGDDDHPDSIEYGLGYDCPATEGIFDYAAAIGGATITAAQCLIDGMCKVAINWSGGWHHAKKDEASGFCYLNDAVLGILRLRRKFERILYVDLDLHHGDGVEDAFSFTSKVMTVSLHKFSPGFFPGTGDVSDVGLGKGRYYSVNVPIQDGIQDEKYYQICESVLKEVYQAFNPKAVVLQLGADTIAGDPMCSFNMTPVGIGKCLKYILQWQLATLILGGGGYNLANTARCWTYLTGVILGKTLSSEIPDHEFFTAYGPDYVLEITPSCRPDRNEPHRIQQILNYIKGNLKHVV

Compound | IC50 [1] [µM] | IC50 [2] [µM] | IC50 [3] [µM] | IC50 [4] [µM] | IC50 [5] [µM]
CCCCNNC(=O)c1ccc(F)cc1 [RLS2-123, N′-butyl-4-fluorobenzohydrazide] | 13.2 | 15.1 | 1.78 |  | 
CCCCNNC(=O)c1ccc(OC(F)(F)F)cc1 [RLS2-124, N′-butyl-4-(trifluoromethoxy)benzohydrazide] | 8.86 | 9.09 | 1.35 |  | 
CCCCNNC(=O)c1ccc(OC)cc1 [RLS2-126, N′-butyl-4-methoxybenzohydrazide] | 1.91 | 2.52 | 0.43 |  | 
CCCCNNC(=O)c1ccc([N+](=O)[O-])cc1 [RLS2-128, N′-butyl-4-nitrobenzohydrazide] | 21.3 | 21.2 | 2.47 |  | 
CCCCNNC(=O)c1ccc(Cl)cc1 [RLS2-133, N′-butyl-4-chlorobenzohydrazide] | 3.75 | 5.82 | 0.95 |  | 
CCCNNC(=O)c1ccc(Br)cc1 [RLS2-137, 4-bromo-N′-propylbenzohydrazide] | 1.7 | 3.88 | 0.22 |  | 
O=C(NNCCc1ccccc1)c1ccc(Br)cc1 [RLS2-138, 4-bromo-N′-phenethylbenzohydrazide] | > 50 | > 50 | > 50 |  | 
CC(C)NNC(=O)c1ccccc1 [RLS2-185, N′-isopropylbenzohydrazide] | > 50 | > 50 | > 50 |  | 
Cc1ccc(C(=O)NNC(C)(C)C)cc1 [RLS2-187, N′-tert-butyl-4-methylbenzohydrazide] | > 50 | > 50 | > 50 |  | 
CCCCNNC(=O)c1cc2ccccc2cc1O [RLS2-210, N′-butyl-3-hydroxy-2-naphthohydrazide] | > 50 | > 50 | > 50 |  | 
CCCCNNC(=O)c1ccc(C(C)(C)C)cc1 [RLS2-211, 4-tert-butyl-N′-butylbenzohydrazide] | 0.19 | 1.04 | 0.07 | 0.045 | 0.045
O=C(NNCCC1CCCC1)c1ccc(Br)cc1 [RLS2-219, 4-bromo-N′-(2-cyclopentylethyl)benzohydrazide] | 7.4 | 7.65 | 1.08 |  | 
CN(C)c1ccc(C(=O)NNCC2CCCC2)cc1 [RLS2-225, N′-(cyclopentylmethyl)-4-(dimethylamino)benzohydrazide] | 1.76 | 3.25 | 1.67 |  | 
CCCCNNC(=O)c1ccc2ccccc2c1 [RLS2-238, N′-butyl-2-naphthohydrazide] | 4.3 | 5.92 |  |  | 
CCNNC(=O)c1ccc2ccccc2c1 [RLS2-240, N′-ethyl-2-naphthohydrazide] | > 50 | > 50 | > 50 |  | 
NNC(=O)c1ccc2ccccc2c1 [RLS2-243, 2-naphthohydrazide] | > 50 | > 50 | > 50 |  | 
O=C(NNCCCC1CCCC1)c1ccc2ccccc2c1 [RLS2-249, N′-(3-cyclopentylpropyl)-2-naphthohydrazide] | > 50 | > 50 | > 50 |  | 
O=C(NNCC1CCCC1)c1ccc2ccccc2c1 [RLS2-254, N′-(cyclopentylmethyl)-2-naphthohydrazide] | > 50 | > 50 | > 50 |  | 
CCCNNC(=O)c1ccc2ccccc2c1 [RLS2-255, N′-propyl-2-naphthohydrazide] | 3.5 | 6.68 | 1.65 |  | 
O=C(NNCC1CCCC1)c1ccc(Br)cc1 [RLS2-256, 4-bromo-N′-(cyclopentylmethyl)benzohydrazide] | 8.81 | 28.4 | 6.98 |  | 

Compound | IC50 [1] [µM] | IC50 [2] [µM] | IC50 [3] [µM] | IC50 [4] [µM] | IC50 [5] [µM]
O=C(NNCCCC1CCCC1)c1ccc(Br)cc1 [RLS2-257, 4-bromo-N′-(3-cyclopentylpropyl)benzohydrazide] | > 50 | > 50 | > 50 |  | 
CCCCCCNNC(=O)c1ccc(C(C)(C)C)cc1 [RLS2-283, 4-tert-butyl-N′-hexylbenzohydrazide] | 2.25 | 2.82 | 8.08 |  | 
CCCCCCNNC(=O)c1ccc(Br)cc1 [RLS2-284, 4-bromo-N′-hexylbenzohydrazide] | 10.3 | 16.1 | 20 |  | 
CCCCNNC(=O)c1cccnc1 [RLS2-289, N′-butylnicotinohydrazide] | 14.5 | 56.7 | 4.35 |  | 
CCCCNNC(=O)c1ccncc1 [RLS2-290, N′-butylisonicotinohydrazide] | 4.28 | 13.7 | 1.4 |  | 
CCCCNNC(=O)c1cccc(OCC)c1 [RLS2-303, N′-butyl-3-ethoxybenzohydrazide] | > 50 | > 50 | > 50 |  | 
CCCCNNC(=O)c1ccccc1F [RLS2-305, N′-butyl-2-fluorobenzohydrazide] | 72.3 | 79.6 | 42.4 |  | 
CCCCNNC(=O)c1ccc(CN=[N+]=[N-])cc1 [RLS2-312, 4-(azidomethyl)-N′-butylbenzohydrazide] | 0.32 | 0.527 | 0.15 |  | 0.009
CCCCNNC(=O)c1ccccc1-c1ccccc1 [RLS3-4, N′-butylbiphenyl-2-carbohydrazide] | > 50 | > 50 | > 50 |  | 
CCCCNNC(=O)c1cccc(I)c1 [RLS3-5, N′-butyl-3-iodobenzohydrazide] | 31.4 | 47 | > 50 |  | 
CCCCNNC(=O)c1cccc(C(F)(F)F)c1 [RLS3-6, N′-butyl-3-(trifluoromethyl)benzohydrazide] | 35.3 | 93.3 | 1.88 |  | 
CCCCNNC(=O)c1ccc(OC)c(OC)c1 [RLS3-11, N′-butyl-3,4-dimethoxybenzohydrazide] | 22.2 | 20.4 | 4 |  | 
CCCCNNC(=O)c1ccc(OCC)c(OCC)c1 [RLS3-14, N′-butyl-3,4-diethoxybenzohydrazide] | 11.8 | 7.4 | 0.8 |  | 
CCCCNNC(=O)c1ccc(OC)c(OC)c1 [RLS3-20] | > 50 | 30.1 | 13.8 |  | 
CCCCNNC(=O)c1ccc(-c2ccccc2)cc1 [RLS3-43, N′-butylbiphenyl-4-carbohydrazide] | 0.09 | 0.8 |  | 2.43 | 
CCCCNNC(=O)c1ccc(-c2cncnc2)cc1 [SR-4369, N′-butyl-4-(pyrimidin-5-yl)benzohydrazide] | 1.24 | 7.27 | 2.29 |  | 
CCCCNNC(=O)c1ccc(-c2cc(C)cc(F)c2)cc1 [SR-4372, N′-butyl-3′-fluoro-5′-methylbiphenyl-4-carbohydrazide] | 0.76 | 1.2 | 0.38 | 3.6 | 3.7
CCCCNNC(=O)c1ccc(-c2cc(C(=O)OCC)ccc2F)cc1 [SR-4373, ethyl 4′-(2-butylhydrazinecarbonyl)-6-fluorobiphenyl-3-carboxylate] | 1.3 |  | 0.42 |  | 6.5
N′-butyl-3-fluorobenzohydrazide [RLS2-306] | 8.63 | 10.9 | 4.77 |  | 
